Test results reported in US20220079931A1, “ESTROGEN RECEPTOR PROTEIN DEGRADERS” (THE REGENTS OF THE UNIVERSITY OF MICHIGAN, priority 2019, published 2022).

Biological target: T1, ERα (Homo sapiens, UniProt P03372)
T1 sequence (P03372 1-595): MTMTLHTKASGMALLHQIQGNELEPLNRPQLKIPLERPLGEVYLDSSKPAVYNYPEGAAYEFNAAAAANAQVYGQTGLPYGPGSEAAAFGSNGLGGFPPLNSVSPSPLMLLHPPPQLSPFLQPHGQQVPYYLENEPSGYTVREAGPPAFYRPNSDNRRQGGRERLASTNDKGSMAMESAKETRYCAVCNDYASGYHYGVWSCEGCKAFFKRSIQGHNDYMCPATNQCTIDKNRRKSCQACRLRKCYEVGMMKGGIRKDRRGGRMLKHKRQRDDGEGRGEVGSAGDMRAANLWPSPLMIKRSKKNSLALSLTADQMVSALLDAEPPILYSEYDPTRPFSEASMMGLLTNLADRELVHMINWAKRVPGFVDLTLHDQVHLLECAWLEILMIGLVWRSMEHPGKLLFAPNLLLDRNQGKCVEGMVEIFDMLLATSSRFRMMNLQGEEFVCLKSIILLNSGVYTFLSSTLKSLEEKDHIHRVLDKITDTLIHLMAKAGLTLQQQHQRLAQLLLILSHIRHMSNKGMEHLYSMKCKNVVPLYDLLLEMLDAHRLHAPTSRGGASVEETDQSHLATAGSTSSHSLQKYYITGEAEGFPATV
Experiment: ER degradation by Western blotting in MCF-7 cells
Assay type: cell-based
Set-up: host or cells: MCF-7
Procedure: FIG. 1 is an image showing the Western blotting analysis of ER protein in MCF-7 cells treated with Compounds of the Disclosure and control compounds. Cells were treated with different compounds for 4 h and whole cell lysates were then analyzed by Western blotting to examine the level of ER protein. GADPH protein was used for the loading control. The numbers below the panel represent the ERα/GADPH ratio normalized with the DMSO control at 100.
FIG. 2 is an image showing the Western blotting analysis of ER protein in the MCF-7 cells treated with indicated compounds at 1 nM, 10 nM and 100 nM. MCF-7 cells were treated with different compounds for 4 h and whole cell lysates were analyzed by Western blotting to examine the level of ER protein. GADPH protein was used for the loading control. The numbers below the panel represent the ERα/GADPH ratio normalized with the DMSO control at 100.
FIG. 7 is an image showing the ERα degradation dose-response Western blotting for compound 32 at 4 h in MCF-7 cells.
FIG. 9 is an image showing the time course of ERα degradation by Western blotting by compound 32 (30 nM) and fulvestrant (30 nM) in the MCF-7 cells.
Cell Culture. Human breast cancer cell lines MCF-7 (ATCC® HTB-22™) and T47D (ATCC® HTB-133™) were purchased from the American Type Culture Collection (ATCC), Manassas, Va., and maintained and cultured in Dulbecco's Modified Eagle's medium (DMEM) containing 10% fetal bovine serum, 1 unit/ml of penicillin and 1 μg/ml of streptomycin. Cells with 3-8 passages after purchase were used in experiments as indicated.
Western Blot Analysis. Western blot analysis was performed essentially as described previously (Hu et al, 2015, PMID: 26358219). Cells treated with indicated compounds were lysed in Radioimmunoprecipitation Assay Protein Lysis and Extraction Buffer (25 mmol/L Tris.HCl, pH 7.6, 150 mmol/L NaCl, 1% Nonidet P-40, 1% sodium deoxycholate, and 0.1% sodium dodecyl sulfate) containing proteinase inhibitor cocktail (Roche Diagnostics, Mannheim, Germany). After determination of protein concentration by BCA assay (Fisher Scientific, Pittsburgh, Pa.), equal amounts of total protein were electrophoresed through 10% SDS-polyacrylamide gels. The separated protein bands were transferred onto PVDF membranes (GE Healthcare Life Sciences, Marlborough, Mass.) and blotted against different antibodies, as indicated. The human estrogen receptor a antibodies (AB16460) were purchased from Abeam, Inc., Cambridge, Mass. The membranes were reblotted with horseradish peroxidase-conjugated anti-glyceraldehyde-3-phosphate dehydrogenase antibody (G9295) from Sigma-Aldrich Corporation, St. Louis, Mo. The blots were scanned and the band intensities were quantified using GelQuant.NET software as described in biochemlabsolutions.com. The relative mean intensity of target proteins was expressed after normalization to the intensity of glyceraldehyde-3-phosphate dehydrogenase bands from individual repeats.

Structure (SMILES): CCN(CCCCCOCC(=O)N[C@H](C(=O)N1C[C@H](O)C[C@H]1C(=O)N[C@@H](C)c1ccc(-c2scnc2C)cc1)C(C)(C)C)CCOc1ccc(C(=O)c2c(-c3ccc(O)cc3)sc3cc(O)ccc23)cc1 [compound 32, (2S,4R)-1-((S)-2-(2-((5-(Ethyl(2-(4-(6-hydroxy-2-(4-hydroxyphenyl)benzo[b]thiophene-3-carbonyl)phenoxy)ethyl)amino)pentyl)oxy)acetamido)-3,3-dimethylbutanoyl)-4-hydroxy-N—((S)-1-(4-(4-methylthiazol-5-yl)phenyl)ethyl)pyrrolidine-2-carboxamide]
- reduction of ER protein level at 1 h (30 nM, 1 h treatment): > 80%
- ER degradation at the 3 h time-point (30 nM, 3 h): essentially complete ER degradation
- DC50 (4 h treatment, read-out: DC50 (concentration to achieve 50% of protein degradation)): 0.17 nM
- maximum ER degradation (at concentrations as low as 5 nM): > 95%
